The subject of test [1] is 6-OHDA-treated Neuro-2a cells. Nature of the test: 6-OHDA-induced neurotoxicity model, cell viability test (MTT). As to conditions: 6-OHDA 100 µM. The test is classed as cell-based, murine. On the procedure:
Neuro-2a cells were incubated with the studied polyphenolic compounds for 1 h. Then, 100 µM of 6-hydroxydopamine 6-OHDA were added. We determined the percentage of living Neuro-2a cells after treatment with 6-OHDA (Figure 4a–d).
Figure 4 The effect of polyphenolic compounds isolated from M. amurensis heartwood on the viability of Neuro-2a cells treated with 6-OHDA (100 μM) (a–d). The viability of Neuro-2a cells treated with various compounds and 6-OHDA was measured by the MTT assay. Polyphenolic compounds isolated from M. amurensis heartwood were used at concentrations 10, 1, 0.1 μM. The data are presented as means ± SEM of three independent replicates. (*) indicate p < 0.05 versus 6-OHDA-treated cells.
After 24 h of adhesion, Neuro-2a cells (5 × 10^4 cells/mL) were treated with polyphenolic compounds at concentrations of 0.1, 1 and 10 μM for 1 h. Then, 100 µM of 6-OHDA or 1 mM of PQ (Sigma-Aldrich, St. Louis, MO, USA) were added. Cells incubated without inductors or with inductors were used as positive and negative control, respectively. Cell viability was measured after 24 h using the MTT assay.

Test [2] relates to HSV-1. Nature of the test: Virucidal activity, CPE inhibition assay (HSV-1 pretreated with compounds). The class given is cell-based, HSV-1 strain L2. The following applies: for virucidal activity against HSV-1 (in words) / IC50: CPE assay; for virucidal activity against HSV-1 (in words): virus pretreated with compound; for IC50: Human alphaherpesvirus 1, virus pretreated with compound (virucidal), Vero cells, 100 TCID50/mL. On the procedure: The antiviral activity of polyphenols from M. amurensis against HSV-1 was assessed using the cytopathic effect inhibition (CPE) assay. To study the inhibitory effect of polyphenolic compounds directly on the HSV-1 virus (direct virucidal activity), the monolayer of Vero cells grown on 96-well plates (1 × 10^4 cells/well) was infected with the virus (100 TCD50/mL), pretreated with different concentrations of polyphenolic compounds.
(§1) The HSV-1 strain L2 obtained from N.F. Gamaleya Federal Research Centre for Epidemiology and Microbiology (Moscow, Russia) was grown in Vero cells as previously described.
(§2) We determined the direct inhibitory effect of polyphenolic compounds from M. amurensis heartwood on HSV-1 (virucidal effect). We mixed the virus at an infectious dose (100 TCID50/mL) with polyphenolic compounds (from 0.1 to 100 µg/mL) at a ratio of 1:1 (v/v) and incubated for an hour at 37 °C. Then, we infected the monolayer of Vero cells grown on 96-well plates (1 × 10^4 cells/well) with HSV-1 pretreated with the studied compounds. After 1 h adsorption at 37 °C, the cells were washed with phosphate-buffered saline (PBS) and overlaid by the maintenance medium with 1% FBS. The plates were incubated for 72 h at 37 °C in a CO2-incubator. The cytopathic effect (CPE) inhibition assay and real-time reverse transcription-PCR (RT-PCR) assay were used to evaluate virucidal effect of the tested compounds.
We previously described this method in detail in [22]. We performed the MTT assay to evaluate the antiviral activity of polyphenolic compounds. The viral inhibition rate (IR, %) was calculated according to Equation (1):(1) IR, %=Atv−Acv/Acd−Acv×100, where Atv is the absorbance of cells infected with HSV-1 pretreated with the studied compounds,
We calculated the selectivity index (SI) as the ratio of CC50 to IC50. Experiments were repeated three times.

For test [3], the system named is HSV-1. Nature of the test: Virucidal activity, RT-PCR assay (HSV-1 pretreated with compounds). The class given is cell-based, HSV-1 strain L2. As to conditions: for virucidal activity against HSV-1 by RT-PCR (in words): 0.1, 1 and 10 µg/mL; for Ct: 72 h; for −ΔCt: vs virus control; for activity at 0.1 µg/mL / activity at 1 µg/mL / activity at 10 µg/mL / log reduction at 0.1 µg/mL / log reduction at 1 µg/mL / log reduction at 10 µg/mL: Human alphaherpesvirus 1, 72 h; for activity at 0.1 µg/mL / activity at 1 µg/mL / activity at 10 µg/mL: read-out: 2^−ΔCt; for log reduction at 0.1 µg/mL / log reduction at 1 µg/mL / log reduction at 10 µg/mL: read-out: log10. On the procedure: Vero cells grown on 96-well plates were infected with the virus (100 TCID50/mL), pretreated with polyphenolic compounds at concentrations 0.1, 1 and 10 μg/mL. After 72 h of cell incubation, viral DNA was extracted from the supernatants, and the relative level of HSV-1 DNA was determined using RT-PCR. The effect of polyphenols on the relative level of viral DNA was assessed using the 2^−∆Ct method and reported as fold reduction compared to virus control.
as §1, §2
We performed the RT-PCR assay as we previously described in detail in [22]. Briefly, HSV-1 DNA was extracted after incubation from cell supernatants by using the DNA-sorb-AM (K1-12-100-CE) nucleic acid extraction kit (AmpliSens®, Moscow, Russia) according to the manufacturer′s instructions. We treated the supernatants with a lysis solution that contained guanidine chloride (chaotropic agent) in the presence of sorbent (silica particles). As the elution solution was added, the DNA was […] silica particles and separated from the sorbent particles by centrifugation.
We detected the DNA of HSV-1 in the obtained samples using the AmpliSens® HSV I, II-FRT-100F PCR kit (AmpliSens®, Moscow, Russia) on a real-time PCR instrument Rotor-Gene Q (Qiagen, Hilden, Nordrhein-Westfalen, Germany) according to the manufacturer′s instructions. The PCR reaction conditions were the following: initial denaturation at 95 °C for 15 min; then 5 cycles at 95 °C for 5 s, at 60 °C for 20 s, at 72 °C for 15 s; then 40 cycles at 95 °C for 5 s, at 60 °C for 20 s, and at 72 °C for 15 s. A negative sample was used as the amplification control for each run. The threshold cycle number Ct, was measured as the PCR cycle, where the amount of the amplified target reached the threshold value; the Ct values ≥ 37 indicated the absence of the HSV-1 DNA in the samples. We assessed the anti-HSV-1 activity of the studied compounds by the reduction in the viral DNA levels using the 2^−ΔCt method according to Equation (2):(2) ΔCt=Ctcv−Cttv where Ct is the threshold cycle number measured as the PCR cycle, where the amount of the amplified target reached the threshold value, […]

The test system of test [4] is 6-OHDA-treated Neuro-2a cells. Nature of the test: Mitochondrial membrane potential detection (TMRM) in 6-OHDA-treated cells. The class given is cell-based, murine. On the procedure: We determined the effect of polyphenolic compounds from M. amurensis on 6-OHDA-induced mitochondrial dysfunction in Neuro-2a cells (Figure 6a,b).
Figure 6 The effect of polyphenolic compounds isolated from M. amurensis heartwood on mitochondrial membrane potential in Neuro-2a cells treated with 6-OHDA (120 μM) (a,b). Polyphenolic compounds isolated from M. amurensis heartwood were used at concentrations 10, 1, 0.1 μM. The data are presented as means ± SEM of three independent replicates. (*) and (***) indicate, respectively, p < 0.05 and p < 0.001 versus 6-OHDA-treated cells.
The cells were incubated for 1 h in a 96-well plate (1 × 10^4 cells/well) with polyphenolic compounds (0.1, 1 and 10 µM). Then, 6-OHDA (120 µM) was added, and cell suspension was incubated for 1 h. Cells incubated without 6-OHDA and compounds and with 6-OHDA alone were used as positive and negative control, respectively. The tetramethylrhodamine methyl (TMRM) (Sigma-Aldrich, St. Louis, MO, USA) solution (500 nM) was added to each well and cells were incubated for 30 min at 37 °C. The intensity of fluorescence was measured using a PHERAstar FSplate reader (BMG Labtech, Ortenberg, Germany) at λex = 540 nm and λem = 590 nm. The data were processed by MARS Data Analysis v. 3.01R2 (BMG Labtech, Ortenberg, Germany).

Test [5] deals with 6-OHDA-treated Neuro-2a cells. Put plainly: Apoptosis profile by flow cytometry (Annexin V & Dead Cell Kit). The test is classed as cell-based, murine. The following applies: Table 1; polyphenols 10 µM, 6-OHDA 100 µM, 24 h; mean. On the procedure: We investigated the effect of polyphenolic compounds from M. amurensis on apoptosis profile in 6-OHDA-treated Neuro-2a cells by flow cytometry using fluorescent annexin V conjugate as a fluorescent dye. We observed significant changes in apoptosis profile in Neuro-2a cells after 6-OHDA-treatment. […] Polyphenols 3, 6 and 13 diminished the neurotoxic effect of 6-OHDA-treatment.
The cells were incubated for 1 h in a 6-well plate (5 × 10^4 cells/mL) with polyphenolic compounds (10 µM). Then, 6-OHDA (100 µM) was added, and cell suspension was incubated for 24 h. After incubation, the maintenance media was collected, and the cells were washed by cold PBS twice and incubated with trypsin-EDTA solution. The cell suspension was washed with cold PBS twice again, centrifugated and then used for apoptosis detection by Muse® Annexin V & Dead Cell Kit in accordance with the manufacturer’s instructions (Luminex, Austin, TX, USA). The fluorescence was measured with Muse® Cell Analyzer (Luminex, Austin, TX, USA) and the data were processed by Muse 1.5 Analysis software (Luminex, Austin, TX, USA).
A general note: A flow cytometer gives signals particle by particle.

The record followed here is article PMC11050087, “Polyphenols from Maackia amurensis Heartwood Protect Neuronal Cells from Oxidative Stress and Prevent Herpetic Infection” (International Journal of Molecular Sciences, 2024).

Values joined by “and” are separate entries in the source; they are usually repeats but may differ in a detail not shown here. Equal entries are not always repeated.

Regarding `COc1ccc(C2(O)COc3cc(O)ccc3C2=O)c(O)c1` (racemic) [Compound 12, (±)-3-hydroxyvestitone], in test [1] (compound 1 µM), the “effect on viability of 6-OHDA-treated Neuro-2a cells (in words)” value (shortened to “effect on viability”) is reported as “increased the viability”. Moreover, in test [2], the “virucidal activity against HSV-1 (in words)” value is listed as “did not show virucidal activity”. The “virucidal activity against HSV-1 by RT-PCR (in words)” value in test [3] is listed as “did not demonstrate virucidal activity”.

Turning to `O=c1c(-c2ccc(O)cc2)coc2cc(O)cc(O)c12` [Compound 2, genistein], the 50% inhibitory concentration (IC50) (commonly the midpoint of a concentration-inhibition curve) in test [2] is 16.7 µg/mL and 61.9 µM. Moreover, in test [3] (0.1 µg/mL), the Ct amounted to 18.1 ± 2.2 and the “−ΔCt” value worked out at 0. In test [3] (1 µg/mL), the Ct came out at 18.4 ± 2.4 and the “−ΔCt” value is given as −0.30 ± 0.03. Moreover, in test [3] (10 µg/mL), the “anti-HSV-1 activity by RT-PCR (in words)” value is “moderate anti-HSV-1 activity”, the Ct is 22.4 ± 2.4 and the “−ΔCt” value was −4.3 ± 0.5. Besides, in test [3], the activity at 0.1 µg/mL is 100%, the activity at 1 µg/mL was 81.2 ± 11%, the activity at 10 µg/mL came to 5.08 ± 0.61% and the log reduction at 0.1 µg/mL is 0. Also, in test [3], the log reduction at 1 µg/mL worked out at 0.09 ± 0.01 and the log reduction at 10 µg/mL is 1.3 ± 0.2.

`COc1c(O)cc2occ(-c3ccc(O)cc3)c(=O)c2c1O` [Compound 5, tectorigenin]: the “effect on viability” value in test [1] (compounds at 10, 1, 0.1 µM) is given as “weak effect on cell viability”. Further, the “virucidal activity against HSV-1 (in words)” value in test [2] was “did not show virucidal activity”. Further, the “virucidal activity against HSV-1 by RT-PCR (in words)” value in test [3] was “did not demonstrate virucidal activity”.

For `NCCc1cc(O)c(O)cc1O` [Compound 6-OHDA, 6-hydroxydopamine, reference compound], in test [4] (6-OHDA alone), the “decrease of TMRM fluorescence after treatment of Neuro-2a cells with 6-OHDA” value worked out at 14%. In test [5], the Dead came out at 1.11 ± 0.37%; the Early apop. is 42.62% and 42.62 ± 2.3%; the “Late apop./Dead” value is 12.15% and 12.15 ± 1.34%; the Live is 44.14 ± 1.34%.

As for `COc1ccc(-c2coc3cc(O)ccc3c2=O)cc1` [Compound 8, formononetin], the “effect on viability” value in test [1] (compound 1 µM) is given as “increased the viability”; in test [1] (compounds at 10, 1, 0.1 µM) it was “weak effect on cell viability”. The “virucidal activity against HSV-1 (in words)” value in test [2] is on record as “did not show virucidal activity”. Moreover, the “virucidal activity against HSV-1 by RT-PCR (in words)” value in test [3] was “did not demonstrate virucidal activity”.

Take `Oc1cc(O)cc(/C=C/c2ccc(O)c(O)c2)c1` [Compound 11, piceatannol]: the “effect on viability” value in test [1] (compounds at 10, 1, 0.1 µM) is “weak effect on cell viability”. Besides, the “increase of mitochondrial membrane potential” value in test [4] (compound 10 µM, 6-OHDA 120 µM, TMRM) is 8–12%. For the same compound, the IC50 in test [2] is 6.7 µg/mL and 27.4 µM. Also, in test [2] (ratio of CC50 to IC50, virucidal scheme), the SI turned out to be 37.3 ± 5.2. In test [3] (0.1 µg/mL), the Ct is reported as 18.4 ± 2.4 and the “−ΔCt” value is −0.30 ± 0.03. In test [3] (1 µg/mL), the “inhibition of HSV-1 replication by RT-PCR (in words)” value is “inhibited the replication of HSV-1”, the Ct was determined as 24.5 ± 3.4 and the “−ΔCt” value is given as −6.4 ± 0.8. Further, in test [3] (10 µg/mL), the “anti-HSV-1 activity by RT-PCR (in words)” value is given as “significantly reduced the level of viral DNA”, the Ct amounted to 30.2 ± 3.9 and the “−ΔCt” value was −12.1 ± 1.4. Further, in test [3], the activity at 0.1 µg/mL turned out to be 81.2 ± 11%, the activity at 1 µg/mL is 1.18 ± 0.15%, the activity at 10 µg/mL was found to be 0.0228 ± 0.03% and the log reduction at 0.1 µg/mL stood at 0.09 ± 0.01. In addition, in test [3], the log reduction at 1 µg/mL amounted to 1.9 ± 0.2 and the log reduction at 10 µg/mL worked out at 3.6 ± 0.5.
